Assay results: EP4755878A1, “PHOTOCHROMIC COMPOUND, PHENOL DERIVATIVE, CURABLE COMPOSITION, OPTICAL ARTICLE, LENS, AND EYEGLASS” (TOKUYAMA CORPORATION, priority 2023, dated 2025)

Assay: Photochromic properties of photochromic laminate (plastic lens) made by coating method
Type: physicochemical
Conditions: for Color developing density at 23°C: absorbance difference after 240 seconds irradiation at 23°C; for Color developing density at 35°C: absorbance difference after 240 seconds irradiation at 35°C; for Maximum absorption wavelength: after color development, second absorption wavelength (lower line of pair)
From the text: First, the photochromic compound obtained in Example 1 above, a photoinitiator, and polymerizable compounds were mixed to obtain a curable composition.
As the polymerizable compounds, a blend of the following radically-polymerizable monomers in combination was used.
• Polyethylene glycol dimethacrylate (average molecular weight: 736): 42 parts by mass • Polyethylene glycol dimethacrylate (average molecular weight: 536): 12 parts by mass • Trimethylolpropane trimethacrylate: 38 parts by mass • γ-Methacryloyloxypropyltrimethoxysilane: 2 parts by mass • Glycidyl methacrylate: 1 part by mass.
Note that in the curable composition, the photochromic compound obtained in Example 1 above was added to be 0.25 mmol taking the total amount of the radically-polymerizable monomers as 100 g. The following were used as additives.
(stabilizer, Irganox 245): 1 part by mass Bis(1,2,2,6,6-pentamethyl-4-piperidyl) sebacate: 3 parts by mass Leveling agent from DuPont Toray Specialty Materials K.K. (L7001): 0.1 parts by mass.
Note that the above-mentioned additives are described with blending ratios taking a total of the radically-polymerizable monomers as 100 parts by mass.
Using this curable composition, a photochromic laminate was obtained by a lamination process described below with the polymerization described below being carried out.
First, a thiourethane plastic lens with a center thickness of 2 mm and a refractive index of 1.60 was prepared as an optical substrate. Note that the thiourethane plastic lens had been alkaline-etched beforehand in a 10% aqueous sodium hydroxide solution at 50°C for 5 minutes, and then thoroughly washed with distilled water.
A spin coater (1H-DX2, manufactured by MIKASA CO., LTD) was used to coat a surface of the above-mentioned plastic lens with a moisture-curable primer (product name: TR-SC-P, manufactured by Tokuyama Corporation) at a rotation speed of 70 rpm for 15 seconds, followed by at 1000 rpm for 10 seconds. Then, about 2 g of the photochromic curable composition obtained as above was spin-coated at a rotation speed of 60 rpm for 40 seconds, followed by at 600 rpm for 10 to 20 seconds so as to achieve a photochromic coating layer with a film thickness of 40 µm.
The lens having the surface coated with the photochromic curable composition (photochromic coating layer) was irradiated with light for 90 seconds in a nitrogen gas atmosphere using a metal halide lamp with an output of 200 mW/cm^2 to cure the coating film. The coating was then further heated at 110°C for 1 hour to produce a photochromic laminate with a photochromic layer.
Photochromic laminates were produced using the photochromic compounds obtained in Examples 2 to 19 in the same manner as in Example 20.
Photochromic laminates were obtained in the same manner as in Example 20 using photochromic compounds represented by the following formulas (A) to (F). [drawing 143] [drawing 144] [drawing 145] [drawing 146] [drawing 147] [drawing 148] [drawing 149] [drawing 150]
The resulting photochromic laminates were evaluated by the methods described below.
Table 3 summarizes the results of Examples 20, 32, and 34, and Comparative Examples 1 to 6, and Table 4 summarizes the results of Examples 21 to 31, 33, and 35 to 38. The relationship between the fading half-life at 23°C and the color development ratio at the higher temperature of the photochromic laminates according to Examples and Comparative Examples are shown in a graph in FIG. 1.
Photochromic laminates were formed using the photochromic compound obtained in Examples 61 to 71 in the same manner as in Example 20.

Row | Color developing density at 23°C (first absorption wavelength) | Color developing density at 23°C (second absorption wavelength) | Color developing density at 35°C (first absorption wavelength) | Color developing density at 35°C (second absorption wavelength) | Maximum absorption wavelength | SMILES
1 | 1.20 - | 0.90 - | 0.88 - | 0.66 - | 625 nm | COCCOCCOCCC1(CCOCCOCCOC)c2cc(N(c3ccccc3)c3ccccc3)ccc2-c2c1c1c(c3cc(OC)c(-c4c(OC)cc(OC)cc4OC)cc23)OC(c2ccc(OC)cc2)(c2ccc(OC)cc2)C=C1 [Formula (62-5)]
2 | 0.72 - | 1.18 - | 0.53 - | 0.88 - | 596 nm | CCCOc1ccc(C2(c3ccc(OCCC)cc3)C=Cc3c4c(c5ccc(-c6ccc(OC)cc6OC)cc5c3O2)-c2ccc(N(C)c3ccc(F)cc3)cc2C4(CC)CC)cc1 [Formula (5-4)]
3 | 0.79 - | 0.73 - | 0.51 - | 0.47 - | 636 nm | CCCCOCCC1(CCOCCCC)c2cc(N(c3ccccc3)c3ccc(C)cc3)ccc2-c2c1c1c(c3cc(OC)c(OC)cc23)OC(c2ccc(OC)cc2)(c2ccc(N3CCOCC3)cc2)C=C1 (centres unmarked) [Formula (68-2)]
4 | 0.73 - | 1.13 - | 0.51 - | 0.80 - | 628 nm | COc1ccc2c3c(c4c(c2c1)OC(c1ccc(F)cc1)(c1ccc(N2CCOCC2)cc1)C=C4)C(CCC(F)(F)F)(CCC(F)(F)F)c1cc(N(C)c2ccc(C)cc2)ccc1-3 (centres unmarked) [Formula (14-3)]
5 | 0.37 - | 0.77 - | 0.22 - | 0.46 - | 598 nm | CCCCCCOc1ccc(C2(c3ccc(OCCCCCC)cc3)C=Cc3c4c(c5ccc(OC(F)(F)F)cc5c3O2)-c2ccc(N(C)c3ccc(C(F)(F)F)cc3)cc2C42CCC(CC)(CC)CC2)cc1 [Formula (6-3)]
6 | 0.85 - | 0.77 - | 0.57 - | 0.53 - | 623 nm | CCCCOCCC1(CCOCCCC)c2cc(N(c3ccccc3)c3ccccc3)ccc2-c2c1c1c(c3cc(OC)c(N(C)c4ccc(C(F)(F)F)cc4)cc23)OC(c2ccc(OC)cc2)(c2ccc(OCCC)cc2)C=C1 (centres unmarked) [Formula (65-2)]
7 | 0.51 - | 0.51 - | 0.31 - | 0.30 - | 620 nm | COc1ccc(C2(c3ccc(N4CCOCC4)cc3)C=Cc3c4c(c5cc(Sc6c(C)cccc6C)c(OC)cc5c3O2)-c2ccc(N3CCOc5cc(F)ccc53)cc2C42CC(C)(C)CC(C)(C)C2)cc1 (centres unmarked) [Formula (11-4)]
8 | 1.43 - | 1.36 - | 1.17 - | 1.10 - | 643 nm | CCCC1(CCC)c2cc(N(C)c3ccccc3)ccc2-c2c1c1c(c3cc(OC)c(-c4ccc(N5CC(C)OC(C)C5)cc4)cc23)OC(c2ccc(N3CCOCC3)cc2)(c2ccc(OC)c(OC)c2)C=C1 (centres unmarked) [Formula (71-5)]
9 | 0.85 - | 0.96 - | 0.61 - | 0.70 - | 613 nm | CCCC1(CCC)c2cc(N3CCCc4ccccc43)ccc2-c2c1c1c(c3cc(OC)ccc23)OC(c2ccc(OC)cc2)(c2ccc(OCCCO)cc2)C=C1 (centres unmarked) [Formula (17-3)]
10 | 0.71 - | 0.80 - | 0.50 - | 0.57 - | 626 nm | CCCCOc1ccc(C2(c3ccc(OC)cc3)C=Cc3c4c(c5cc(-c6ccc(C(F)(F)F)cc6)c(OC)cc5c3O2)-c2ccc(N(C)c3ccccc3)cc2C4(CCC)CCC)cc1 (centres unmarked) [Formula (63-2)]
11 | 1.37 - | 1.03 - | 1.09 - | 0.82 - | 602 nm | CCCCCC1(CCCCC)c2cc(N3CCOc4ccccc43)ccc2-c2c1c1c(c3cc(OC)c(-c4ccc(N5CCOc6ccccc65)cc4)cc23)OC(c2ccc(OC)cc2)(c2ccc(OC)cc2)C=C1 [Formula (66-5)]
12 | 0.71 - | 0.96 - | 0.46 - | 0.63 - | 579 nm | COc1ccc(C2(c3ccc(OC)cc3)C=Cc3c4c(c5ccc(OC)cc5c3O2)-c2ccc(Oc3ccccc3)cc2C4(C)C)cc1 [Formula(E), reference compound]
13 | 1.24 - | 1.01 - | 0.83 - | 0.68 - | 594 nm | COCCN(c1ccccc1)c1ccc2c(c1)C(CCOC)(CCOC)c1c3c(c4cc(C)c(N5CCOCC5)cc4c1-2)OC(c1ccc(OC)cc1)(c1ccc(OC)cc1)C=C3 [Formula (10-3)]
14 | 1.76 - | 1.28 - | 1.32 - | 0.96 - | 640 nm | COCCCC1(CCCOC)c2cc(N(c3ccccc3)c3ccccc3)ccc2-c2c1c1c(c3cc(OC)c(N4CCOCC4)cc23)OC(c2ccc(C)cc2)(c2ccc(N(C)c3ccccc3)cc2)C=C1 (centres unmarked) [Formula (69-2)]
15 | 1.94 - | 0.92 - | 1.38 - | 0.67 - | 611 nm | CCCCCCOc1ccc(C2(c3ccc(OCCCCCC)cc3)C=Cc3c4c(c5cc(N6CCC(C(F)(F)F)CC6)c(OC)cc5c3O2)-c2ccc(N(c3ccccc3)c3ccccc3)cc2C42CCC3(CCCCC3)CC2)cc1 [Formula (64-3)]
16 | 0.62 - | 0.75 - | 0.37 - | 0.45 - | 565 nm | COc1ccc(C2(c3ccc(OC)cc3)C=Cc3c4c(c5ccc(OC)cc5c3O2)-c2ccc(OC(F)(F)F)cc2C4(C)C)cc1 [Formula(F), reference compound]
17 | 1.37 - | 0.88 - | 1.03 - | 0.64 - | 619 nm | CCCOc1ccc(C2(c3ccc(OCCC)cc3)C=Cc3c4c(c5cc(N(C)c6ccccc6)c(OC)cc5c3O2)-c2ccc(N(C)c3ccccc3)cc2C4(CCC)CCC)cc1 [Formula (61-4)]
18 | 0.84 - | 1.00 - | 0.60 - | 0.72 - | 639 nm | CCC1(CC)c2cc(N(C)c3ccccc3)ccc2-c2c1c1c(c3cc(OC)c(-c4ccc(OC)cc4OC)cc23)OC(c2ccc(OC)cc2)(c2ccc(N3CCOCC3)cc2)C=C1 (centres unmarked) [Formula (67-2)]
19 | 0.55 - | 0.88 - | 0.34 - | 0.57 - | 629 nm | CCC1(CC)c2cc(N3CCOc4ccccc43)ccc2-c2c1c1c(c3cc(OC)ccc23)OC(c2ccc(OCCOC(=O)CCCCCCCCC(=O)OCCOc3ccc(C4(c5ccc(N6CCOCC6)cc5)C=Cc5c6c(c7ccc(OC)cc7c5O4)-c4ccc(N5CCOc7ccccc75)cc4C6(CC)CC)cc3)cc2)(c2ccc(N3CCOCC3)cc2)C=C1 (centres unmarked) [Formula (19-3)]
